We go through 11 compounds from US8318768B2, “Bronchodilating alpha, beta-unsaturated isoquinoline amides” (Respiratorius AB, priority 2007, dated 2012).

Format in all cases: cell-based
The subject of one assay is MCP-1. Briefly: Human PBMC in vitro model, MCP-1 production (Luminex-based assay). The conditions noted are these: compound 10 μM or dexamethasone 1 μM, 24 h supernatant. As to the method: (§1) Cryopreserved PBMC's (SeraCare, # 72001) were thawed, washed with culture media (RPMI-1640 from Invitrogen, # 61870-036+10% heat inactivated fetal bovine serum from Invitrogen, # 10082-147+100 U/ml penicillin+[…] streptomycin) and tested for viability using Trypan blue (PBMC viability=96%). Cells were then resuspended to 1×10^6 cells/ml in culture media and 0.5 ml was plated into 24 well culture plates (5×10^5 cells/well) before incubation for 30 minutes at 37° C. with 5% CO2 prior to addition of a compound of the present invention (10 μM) or dexamethasone (1 μM). One hour thereafter, LPS (0.1 μg/ml, Salmonella abortus equi, Sigma, # L1887) was added and the cells were incubated for another 24 h before collection of the cell culture supernatants, which were assayed for the presence of MCP-1 and LTB4.
MCP-1 levels were quantified employing a Luminex-based assay according the manufacturer's instructions. Data was collected using a Luminex 100 (Luminex Corporation, Austin, Tex.). Standard curves were generated using a 5-parameter logistic curve fitting equation weighted by 1/y (StarStation V 2.0; Applied Cytometry Systems, Sacramento, Calif.). Each sample reading was interpolated from the appropriate standard curve. Calculated concentrations were multiplied by the appropriate dilution factor when necessary.
(§2) The inhibitory effect of compounds of the present invention, dexamethasone, and vehicle on production of MCP-1 and LTB4 in the PBMC model as described herein above, with (+LPS) or without (−LPS) LPS-induced mediator production, is tabulated below.

The test system of another assay is LTB4. Briefly: Human PBMC in vitro model, LTB4 production (ELISA). The settings on record: compound 10 μM or dexamethasone 1 μM, 24 h supernatant. As to the method:
as §1
LTB4 levels were quantified by ELISA following the manufacturer's instructions. Absorbance readings were detected using a ThermoMax microplate reader (Molecular Devices). Standard curves were generated using a 4-parameter logistic curve fitting equation (SoftMax Pro 4.7.1; Molecular Devices). Each sample reading was interpolated from the appropriate standard curve. Duplicate interpolated sample values were averaged and standard deviations were calculated. Calculated concentrations were multiplied by the appropriate dilution factor.
as §2

In assay [1] the test system is human bronchiols. Nature of the assay: Leukotriene D4 induced contraction of human bronchiols, in vitro model (Biological Example 1). The conditions noted are these: pre-treatment with compound 10 μM, Leukotriene D4 (10 nM) induced contraction, read-out: Remaining contraction (%). Here is the method: (§3) The usefulness of the compounds, as defined in the preceding embodiments, in treating, pretreating, revoking, mitigating, alleviating and/or preventing a condition of the respiratory apparatus characterized by bronchoconstriction, were evaluated in a complex and relevant in vitro model. The in vitro model was in accordance with the in vitro model disclosed in US 2006-0040254 A1 and by Skogvall, S., Berglund, M., Dalence-Guzman, M. F., Svensson, K., Jonsson, P., Persson, C. G. A and Sterner, O., in Pulmonary Pharmacology and Therapeutics, vol 20:3, 2007, p. 273-280. All references disclosed herein are hereby incorporated in their entirety by reference.
(§4) In short, lung tissue was obtained from patients undergoing lobectomia or pulmectomia due to lung carcinoma. From the bronchus of this tissue were rectangular oblong preparations obtained. The contraction induced by inflammatory mediators, such as Leukotriene D4, histamine, prostaglandin D2 or acetylcholine, in the presence and absence of the compound to be evaluated, were compared.
The remaining contraction, after pre-treatment with various compound examples at a concentration of 10 μM, of human bronchiols after Leukotriene D4 (10 nM) induced contraction according to the in vitro method described herein above are tabulated below.

The test system of assay [2] is human bronchiols. Nature of the assay: Contraction of human bronchiols induced by acetylcholine, carbachol, histamine, methacholine or a mixture (Biological Example 2). The settings on record: compound 10 μM. Here is the method: as §3, §4
(§5) The remaining contraction, after pre-treatment with various compound examples at a concentration of 10 μM, of human bronchiols or rat bronhi after the induction of contraction by treatment with the contractile agents acetylcholine (100 uM), carbachol (10 uM), histamine (100 uM), methacholine (100 uM) or a mixture of acetylcholine (100 uM), leukotriene D4 (LTD4) (0.01 uM) and histamine (100 uM), according to the in vitro method described herein above, are tabulated below: […]

The next assay relates to rat bronhi. Nature of the assay: Contraction of rat bronchi induced by acetylcholine, carbachol or methacholine (Biological Example 2). The conditions noted are these: compound 10 μM. Here is the method: as §3, §4, §5
The mark [3] stands for this setting: Mixture of Acetylcholine (100 uM), LTD4 (0.01 uM) and histamine (100 uM).

Turning to `C[C@@H]1C[C@H]2[C@@H]3CCC4=CC(=O)C=C[C@]4(C)[C@@]3(F)[C@@H](O)C[C@]2(C)[C@@]1(O)C(=O)CO` [Dexamethasone, reference compound], the “Mean MCP-1” value was found to be 1425.6 pg/mL with MCP-1 (with LPS 0.1 μg/ml (+LPS)) and 0 pg/mL in the assay with MCP-1 (without LPS (−LPS)). The “Mean LTB-4” value is 12.6 pg/mL in the assay with LTB4 (with LPS 0.1 μg/ml (+LPS)) and 2.7 pg/mL with LTB4 (without LPS (−LPS)).
As for `O=C(/C=C/c1ccccc1)N1CCc2c(Cl)c(O)c(O)c(Cl)c2C1` [Example 1, (E)-1-(5,8-dichloro-6,7-dihydroxy-3,4-dihydroisoquinolin-2(1H)-yl)-3-phenylprop-2-en-1-one], the activity at 10 µM in the assay with human bronchiols [1] is 41%.
As for `O=C(/C=C/c1cccnc1)N1CCc2c(Cl)c(O)c(O)c(Cl)c2C1` [Example 2, (E)-1-(5,8-dichloro-6,7-dihydroxy-3,4-dihydroisoquinolin-2(1H)-yl)-3-(pyridin-3-yl)prop-2-en-1-one], the activity at 10 µM with human bronchiols [1] is 44%.
On to `O=C(/C=C/c1ccc(F)cn1)N1CCc2c(Cl)c(O)c(O)c(Cl)c2C1` [Example 3, (E)-1-(5,8-dichloro-6,7-dihydroxy-3,4-dihydroisoquinolin-2-(1H)-yl)-3-(5-fluoropyridin-2-yl)prop-2-en-1-one], for which the activity at 10 µM in the assay with human bronchiols [1] was 24%. Moreover, the “REMAINING CONTRACTION (%)” value with human bronchiols [2] (setting [3]) is 43%.
For the compound `C/C(=C\C(=O)N1CCc2c(Cl)c(O)c(O)c(Cl)c2C1)c1cnc2ccccc2c1` [Example 5, (E)-1-(5,8-dichloro-6,7-dihydroxy-3,4-dihydroisoquinolin-2(1H)-yl)-3-(quinolin-3-yl)but-2-en-1-one], in the assay with human bronchiols [1], the activity at 10 µM was determined as 31%.
`O=C(/C=C\c1ccccc1O)N1CCc2c(Cl)c(O)c(O)c(Cl)c2C1` [Example 7, (Z)-1-(5,8-dichloro-6,7-dihyroxy-3,4-dihydroisoquinolin-2(1H)-yl)-3-(2-hydroxyphenyl)prop-2-en-1-one]: the activity at 10 µM in the assay with human bronchiols [1] is 71%.
With `C/C(=C\C(=O)N1CCc2c(Cl)c(O)c(O)c(Cl)c2C1)c1ccc(F)cn1` [Example 8, (E)-1-(5,8-dichloro-6,7-dihydroxy-3,4-dihydroisoquinolin-2(1H)-yl)-3-(5-fluoropyridin-2-yl)but-2-en-1-one], the activity at 10 µM in the assay with human bronchiols [1] is 76%.
Still for that read-out and setting: the same measure for `Cc1c(O)c(O)c(C)c2c1CCN(C(=O)/C=C/c1ccc(C(F)(F)F)nc1)C2` [Example 9, (E)-6,7-dihydroxy-5,8-dimethyl-1,2,3,4-tetrahydroisoquinoline 3-(6-(trifluoromethyl)pyridin-3-yl)acrylamide]: 75%.
Turning to `Cc1nc(C(F)(F)F)ccc1/C=C/C(=O)N1CCc2c(Cl)c(O)c(O)c(Cl)c2C1` [Example 11, (E)-1-(5,8-dichloro-6,7-dihydroxy-3,4-dihydroisoquinolin-2(1H)-yl)-3-(2-methyl-6-(trifluoromethyl)pyridin-3-yl)prop-2-en-1-one], the activity at 10 µM in the assay with human bronchiols [1] was 9%. In the assay on human bronchiols [2] (setting [3]), the “REMAINING CONTRACTION (%)” value is on record as 25%.
Consider `O=C(/C=C/c1ccc(C(F)(F)F)nc1)N1CCc2c(Cl)c(O)c(O)c(Cl)c2C1` [Example 12, (E)-1-(5,8-dichloro-6,7-dihydroxy-3,4-dihydroisoquinolin-2(1H)-yl)-3-(6-(trifluoromethyl)pyridin-3-yl)prop-2-en-1-one], for which the “Mean MCP-1” value stood at 303.1 pg/mL in the assay on MCP-1 (with LPS 0.1 μg/ml (+LPS)) and 229.7 pg/mL in the assay with MCP-1 (without LPS (−LPS)). Further, in the assay with human bronchiols [1], the activity at 10 µM came to 6%. Besides, the “REMAINING CONTRACTION (%)” value in the assay with rat bronhi (Acetylcholine (100 uM)) is 40%; in the assay with rat bronhi (Carbachol (10 uM)), 27%; in the assay on rat bronhi (Methacholine (100 uM)), 49%; in the assay with human bronchiols [2] (Acetylcholine (100 uM)), 4%; in the assay on human bronchiols [2] (Carbachol (10 uM)), 10%; in the assay on human bronchiols [2] (Histamine (100 uM)), 1%. Besides, the “REMAINING CONTRACTION (%)” value was 7% in the assay with human bronchiols [2] (Methacholine (100 uM)) and 12% in the assay with human bronchiols [2] (setting [3]). Further, the “Mean LTB-4” value was 9.9 pg/mL with LTB4 (with LPS 0.1 μg/ml (+LPS)) and 3.9 pg/mL with LTB4 (without LPS (−LPS)).
`C/C(=C\C(=O)N1CCc2c(Cl)c(O)c(O)c(Cl)c2C1)c1ccc(C(F)(F)F)nc1` [Example 13]: the “Mean MCP-1” value in the assay on MCP-1 (with LPS 0.1 μg/ml (+LPS)) amounted to 256.7 pg/mL; in the assay with MCP-1 (without LPS (−LPS)) it was 217.1 pg/mL. In addition, the activity at 10 µM in the assay with human bronchiols [1] was determined as 7%. The “REMAINING CONTRACTION (%)” value in the assay with rat bronhi (Acetylcholine (100 uM)) was determined as 52%; in the assay on human bronchiols [2] (Acetylcholine (100 uM)) it was 7%; in the assay on human bronchiols [2] (Histamine (100 uM)) it was 3%; in the assay with human bronchiols [2] (setting [3]), 18%. Also, the “Mean LTB-4” value with LTB4 (with LPS 0.1 μg/ml (+LPS)) is 9.8 pg/mL; with LTB4 (without LPS (−LPS)), 4.3 pg/mL.
